Legend:
[1] = Particle size distribution test, laser particle size analyzer, dry dispersion; assay type: physicochemical
Method: The particle size distribution of DPI dry powder was measured by dry dispersion method using laser particle size analyzer, and Dv10, Dv50, Dv90, VMD (Volume median diameter) and SMD (Sauter mean diameter) were determined, respectively.

[2] = In vivo pharmacokinetics, plasma (UPLC-MS/MS); parameters: species or system rat; conditions: for half-life: read-out: HLz (biological half-life) (converted); for MRT last: read-out: MRTlast (mean retention time); for concentration at 2 min / concentration at 10 min / concentration at 15 min / concentration at 30 min / concentration at 60 min / concentration at 120 min / concentration at 240 min / concentration at 360 min / concentration at 4 min: read-out: Blood concentration of BA; for concentration at 4 min: Sprague-Dawley (SD)
Method: (§1) SPF-grade healthy SD male rats, body weight 180-220 g, purchased from SPF (Beijing) Biotechnology Co., Ltd (Certificate No. SCXK (Beijing) 2019-0010), were conventionally reared under (23±2)° C., humidity: (50±10)%. This study was conducted with the approval of the Animal Experiment Center of Tianjin University of Traditional Chinese Medicine.
(§2) 108 SPF-grade SD male rats were randomly divided into tail intravenous injection group and pulmonary administration group, with 9 time points of 2 min, 4 min, 10 min, 15 min, 30 min, 1 h, 2 h, 4 h and 6 h per group, 6 rats per time point per group. The rats were fasted for 12 h before the experiment, with water provided. The rats were weighed (to calculate the dose) and numbered, and both groups were intraperitoneally injected with 10% chloral hydrate at a dose of 2 mL/kg. Group 1 was administered BA/AH-DPI saline solution by tail intravenous injection at a dose of 9 mg/kg. Group 2 was administered 3 mg of BA/AH-DPI fine powder at the same dose by spray administration with a DP-4 tracheal insufflator (1.5 mL of air was pushed each time, 3-4 times consecutively). Blood was sampled from the abdominal aorta of the rats in both groups at the above time points after drug administration, and the rats were executed. The obtained whole blood was placed in a centrifuge tube with sodium heparin, centrifuged at 4000 r/min for 10 min, and the upper layer of plasma was separated and stored a refrigerator at −80° C. After blood collection, the thoracic cavity was quickly opened and the lungs of the rats were isolated. The small amount of floating blood on the surface of the lung tissue was washed with saline in an ice bath. The surface of the lung tissue was blotted with filter paper. The trachea was cut off, wrapped in tin foil and placed in a 10 mL centrifuge tube. The lung was weighed precisely, and stored in a refrigerator at −80° C.
(§3) 100 μL of the plasma sample or lung tissue supernatant was precisely absorbed, and 200 μL (100 ng/mL) of methanol solution containing the internal standard was added. The mixture was vortexed and mixed for 3 min, and centrifuged at 12000 r/min for 10 min to obtain the supernatant as the finished sample. The contents of BA and AH were determined by UPLC-MS/MS method.
(§4) Electrospray ion source (ESI source); scan mode: positive (ESI+) detection; detection mode: multi-reactive ion monitoring (MRM). Electrospray voltage: 4 kV; atomization gas: N2; spray gas flow rate (Gas1): 15 psi; ion source temperature: 300° C.
(§5) Meaning of pharmacokinetic parameters: HLz was the biological half-life, i.e., the time required for the amount or blood concentration of the drug in the body to decrease by half; Tmax was the time to peak, i.e., the time required to reach the peak concentration of the drug after administration. Cmax was the peak drug concentration, i.e., the highest blood concentration that occurred after administration of the drug. AUC was the area enclosed by the blood drug concentration curve against the time axis. Vz/F was the apparent volume of distribution, the ratio constant of the amount of drug in the body to the blood concentration when the drug reached dynamic equilibrium in the body. CL/F was the clearance, i.e., the number of apparent volume of distribution of the drug removed from the body per unit time. AUMC was the first order moment of the drug-time curve, i.e. the area under the curse of the product of time and blood concentration versus time. MRTlast was the mean retention time, i.e., the average of the residence time of drug molecules in the body.

[3] = In vivo pharmacokinetics, lung tissue homogenate (UPLC-MS/MS); parameters: species or system rat; conditions: for CL/F (clearance) / Cmax / Tmax / half-life / MRT last: BA in rat lung tissue; for concentration at 2 min / concentration at 4 min / concentration at 10 min / concentration at 15 min / concentration at 30 min / concentration at 60 min / concentration at 120 min / concentration at 240 min / concentration at 360 min / Cmax / Tmax / half-life / MRT last: male, Sprague-Dawley (SD); for concentration at 2 min / concentration at 4 min / concentration at 10 min / concentration at 15 min / concentration at 30 min / concentration at 60 min / concentration at 120 min / concentration at 240 min / concentration at 360 min: rat lung tissue homogenate, read-out: Drug concentration of BA in lung tissue; for Cmax / Tmax / half-life / MRT last: lung tissue (homogenate supernatant); for half-life: read-out: HLz (biological half-life) (converted); for MRT last: read-out: MRTlast (mean retention time)
Method: as §1, §2
The lung tissues were added to saline in a weight to volume ratio of 1:4 (g:mL). A homogenate was obtained by beating, dispersing and evenly grinding with a homogenizer under an ice water bath, and centrifuged at 6500 r/min for 20 min to obtain the supernatant of the lung tissue homogenate.
as §3, §4, §5

[4] = male, SD, inhaled or intranasal, BA in rat plasma, pulmonary administration group, BA/AH-DPI 9 mg/kg
[5] = male, SD, inhaled, rat plasma, pulmonary administration BA/AH-DPI 9 mg/kg
[6] = male, SD, BA in rat plasma, tail intravenous injection group, 9 mg/kg
[7] = male, SD, rat plasma, tail intravenous injection BA/AH-DPI saline solution 9 mg/kg
[8] = tail intravenous injection group, 9 mg/kg
[9] = inhaled, pulmonary administration BA/AH-DPI 9 mg/kg
[10] = inhaled or intranasal, pulmonary administration group, BA/AH-DPI 9 mg/kg
[11] = tail intravenous injection BA/AH-DPI saline solution 9 mg/kg

**Q.** Which results are given for O=C(O)[C@H]1O[C@@H](Oc2cc3oc(-c4ccccc4)cc(=O)c3c(O)c2O)[C@H](O)[C@@H](O)[C@@H]1O [BA, baicalin]?
**A.** D10 [1]: 0.88 μm; D50 [1]: 5.18 μm; D90 [1]: 12.61 μm; SMD (Sauter mean diameter) [1]: 2.23 μm; VMD (Volume median diameter) [1]: 6.05 μm; <3 μm ([1]; fraction of particles): 31.81%; <5 μm ([1]; fraction of particles): 48.66%; CL/F (clearance) ([2]; BA in rat plasma, tail intravenous injection group, 9 mg/kg): 98.4805 ± 62.0535 mL/min/kg; Cmax [2, 4]: 2560 ± 351 ng/mL; Tmax [2, 4]: 9 ± 4.2 min; CL/F ([2]; male, SD, inhaled or intranasal, BA in rat plasma, pulmonary administration group, BA/AH-DPI 9 mg/kg, read-out: CL/F (clearance) (converted)): 121 mL/min/kg; half-life [2, 4]: 121 ± 38.4 min; MRT last [2, 4]: 45 ± 5.52 min; Vd/F ([2]; male, SD, inhaled or intranasal, BA in rat plasma, pulmonary administration group, BA/AH-DPI 9 mg/kg, read-out: Vz/F (apparent volume of distribution)): 20.9 ± 6.57 L/kg; bioavailability ([2]; male, SD, inhaled, rat plasma, pulmonary administration of BA/AH-DPI vs tail intravenous injection, 9 mg/kg, read-out: Absolute bioavailability): 60.7%; concentration at 2 min [2, 5]: 690 ± 438 ng/mL; concentration at 10 min [2, 5]: 2320 ± 421 ng/mL; concentration at 15 min [2, 5]: 1470 ± 588 ng/mL; concentration at 30 min [2, 5]: 628 ± 95.9 ng/mL; concentration at 60 min [2, 5]: 289 ± 110 ng/mL; concentration at 120 min [2, 5]: 57.2 ± 14.2 ng/mL; concentration at 240 min [2, 5]: 27.4 ± 10.9 ng/mL; concentration at 360 min [2, 5]: 13.4 ± 3.68 ng/mL; Cmax [2, 6]: 11800 ± 6050 ng/mL; Tmax [2, 6]: 2.28 ± 0.6 min; half-life [2, 6]: 48.6 ± 36 min; MRT last [2, 6]: 14.4 ± 9.6 min; concentration at 2 min [2, 7]: 11700 ± 6170 ng/mL; concentration at 10 min [2, 7]: 933 ± 401 ng/mL; concentration at 15 min [2, 7]: 693 ± 284 ng/mL; concentration at 30 min [2, 7]: 338 ± 70.3 ng/mL; concentration at 60 min [2, 7]: 77 ± 46.1 ng/mL; concentration at 120 min [2, 7]: 53.7 ± 54.2 ng/mL; concentration at 240 min [2, 7]: 8.68 ± 8.46 ng/mL; concentration at 360 min [2, 7]: 2.64 ± 5.27 ng/mL; concentration at 4 min ([2]; male, inhaled, rat plasma, pulmonary administration BA/AH-DPI 9 mg/kg): 1740 ± 962 ng/mL; concentration at 4 min ([2]; male, rat plasma, tail intravenous injection BA/AH-DPI saline solution 9 mg/kg): 3060 ± 861 ng/mL; Time of maximum blood concentration in plasma ([2]; rat, pulmonary administration of BA/AH-DPI 9 mg/kg): around 9 min; CL/F (clearance) ([3]; pulmonary administration group, BA/AH-DPI 9 mg/kg): 800.14 ± 131.95 g/h/kg; CL/F (clearance) [3, 8]: 29086.90 ± 13876.33 g/h/kg; concentration at 2 min [3, 9]: 6440 ± 1200 ng/mL; concentration at 4 min [3, 9]: 4960 ± 1130 ng/mL; concentration at 10 min [3, 9]: 3190 ± 524 ng/mL; concentration at 15 min [3, 9]: 1820 ± 346 ng/mL; concentration at 30 min [3, 9]: 1420 ± 469 ng/mL; concentration at 60 min [3, 9]: 705 ± 160 ng/mL; concentration at 120 min [3, 9]: 235 ± 76.2 ng/mL; concentration at 240 min [3, 9]: 92.2 ± 25.4 ng/mL; concentration at 360 min [3, 9]: 43.1 ± 16.9 ng/mL; Cmax [3, 10]: 26000 ± 4490 ng/g; Tmax [3, 10]: 2.64 ± 1.08 min; half-life [3, 10]: 84 ± 24 min; MRT last [3, 10]: 57 ± 5.22 min; Cmax [3, 8]: 341 ± 112 ng/g; Tmax [3, 8]: 1.98 min; half-life [3, 8]: 101 ± 44.4 min; MRT last [3, 8]: 91.2 ± 36 min; concentration at 2 min [3, 11]: 85.3 ± 27.9 ng/mL; concentration at 4 min [3, 11]: 42 ± 7.67 ng/mL; concentration at 10 min [3, 11]: 45.1 ± 13.6 ng/mL; concentration at 15 min [3, 11]: 45.8 ± 18.7 ng/mL; concentration at 30 min [3, 11]: 39.2 ± 22 ng/mL; concentration at 60 min [3, 11]: 16.3 ± 19.5 ng/mL; concentration at 120 min [3, 11]: 12.9 ± 10.5 ng/mL; concentration at 240 min [3, 11]: 8.37 ± 6.37 ng/mL; concentration at 360 min [3, 11]: 2.71 ± 3.37 ng/mL

Reference: patent US20240115496A1, “A COMPOUND DRY POWDER INHALANT AND USE THEREOF” (TIANJIN UNIVERSITY OF TRADITIONAL CHINESE MEDICINE, priority 2021, published 2024)
